This note sets out measurements from patent US20250136576A1, “Heterocyclic Compounds and Uses Thereof” (ACEA Therapeutics, Inc., priority 2021, published 2025).

Some results are limits rather than exact numbers.

As usually defined, the IC50 is the concentration needed to halve the response being measured.

The test system of the test is KM12-luc cells. Briefly: Cell proliferation and growth inhibition assay (CCK-8) in KM12-luc. In kind it is cell-based. The conditions noted are these: KM12-Luc, 72 h, KM12-luc cells, treated with test compounds for 72 hrs, CCK-8 viability; read-out: NTRK IC50 in KM12-luc. The gist of the method: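 IC50 values were fitted by sigmoidal dose-response non-linear regression of CCK-8 OD450 absorbance after 1-4 hrs with reagent. Culture media were IMDM for MV-4-11, RPMI 1640 for H1975 and DMEM for KM12-luc, each with 10% FBS at 37 °C, 5% CO2.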
For `CN(C)CCN(C)c1ccc(Nc2ncc(C(F)(F)F)c(-c3cn(C)c4ccc(F)cc34)n2)cc1NCC(F)(F)F` [Compound 327, N^1-(2-(dimethylamino)ethyl)-N^4-(4-(5-fluoro-1-methyl-1H-indol-3-yl)-5-(trifluoromethyl)pyrimidin-2-yl)-N^1-methyl-N^2-(2,2,2-trifluoroethyl)benzene-1,2,4-triamine], the half-inhibitory concentration (IC50) was 260 nM.
To `CC(=O)Nc1cc(Nc2ncc(C(F)(F)F)c(-c3c[nH]c4cc(F)ccc34)n2)ccc1N(C)CCN(C)C` [Compound 328a, N-(2-((2-(dimethylamino)ethyl)(methyl)amino)-5-((4-(6-fluoro-1H-indol-3-yl)-5-(trifluoromethyl)pyrimidin-2-yl)amino)phenyl)acetamide] belongs 34.1 nM; to `CC(=O)Nc1cc(Nc2nc(-c3c[nH]c4cc(F)ccc34)ncc2C(F)(F)F)ccc1N(C)CCN(C)C` [Compound 328b, N-(2-((2-(dimethylamino)ethyl)(methyl)amino)-5-((2-(6-fluoro-1H-indol-3-yl)-5-(trifluoromethyl)pyrimidin-4-yl)amino)phenyl)acetamide], 2420 nM.
To `CN(C)CCN(C)c1ccc(Nc2ncc(C(F)(F)F)c(-c3c[nH]c4cc(F)ccc34)n2)cc1N` [Compound 329, N^1-(2-(dimethylamino)ethyl)-N^4-(4-(6-fluoro-1H-indol-3-yl)-5-(trifluoromethyl)pyrimidin-2-yl)-N^1-methylbenzene-1,2,4-triamine] belongs 72.1 nM.
For the molecule `CCC(=O)Nc1cc(Nc2ncc(C(F)(F)F)c(-c3c[nH]c4cc(F)ccc34)n2)ccc1N(CC)CCN(C)C` [Compound 330a, N-(2-((2-(dimethylamino)ethyl)(ethyl)amino)-5-((4-(6-fluoro-1H-indol-3-yl)-5-(trifluoromethyl)pyrimidin-2-yl)amino)phenyl)propionamide], the IC50 turned out to be 292 nM.
To `CCC(=O)Nc1cc(Nc2nc(-c3c[nH]c4cc(F)ccc34)ncc2C(F)(F)F)ccc1N(CC)CCN(C)C` [Compound 330b, N-(2-((2-(dimethylamino)ethyl)(ethyl)amino)-5-((2-(6-fluoro-1H-indol-3-yl)-5-(trifluoromethyl)pyrimidin-4-yl)amino)phenyl)propionamide] belongs greater than 3330 nM; to `CCN(CCN(C)C)c1ccc(Nc2ncc(C(F)(F)F)c(-c3c[nH]c4cc(F)ccc34)n2)cc1NC(C)=O` [Compound 331a, N-(2-((2-(dimethylamino)ethyl)(ethyl)amino)-5-((4-(6-fluoro-1H-indol-3-yl)-5-(trifluoromethyl)pyrimidin-2-yl)amino)phenyl)acetamide], 32.3 nM; to `CCN(CCN(C)C)c1ccc(Nc2nc(-c3c[nH]c4cc(F)ccc34)ncc2C(F)(F)F)cc1NC(C)=O` [Compound 331b, N-(2-((2-(dimethylamino)ethyl)(ethyl)amino)-5-((2-(6-fluoro-1H-indol-3-yl)-5-(trifluoromethyl)pyrimidin-4-yl)amino)phenyl)acetamide], 2020 nM.
The value for `CCN(CCN(C)C)c1ccc(Nc2ncc(C(F)(F)F)c(-c3c[nH]c4cc(F)ccc34)n2)cc1N` [Compound 332, N^1-(2-(dimethylamino)ethyl)-N^1-ethyl-N^4-(4-(6-fluoro-1H-indol-3-yl)-5-(trifluoromethyl)pyrimidin-2-yl)benzene-1,2,4-triamine] was 127 nM; that for `CC(=O)Nc1cc(Nc2ncc(C(F)(F)F)c(-c3cn(C)c4cc(F)ccc34)n2)ccc1N(C)CCN(C)C` [Compound 333, N-(2-((2-(dimethylamino)ethyl)(methyl)amino)-5-((4-(6-fluoro-1-methyl-1H-indol-3-yl)-5-(trifluoromethyl)pyrimidin-2-yl)amino)phenyl)acetamide] was 28.5 nM.
To `CCN(CCN(C)C)c1ccc(Nc2ncc(C(F)(F)F)c(-c3c[nH]c4c(F)cccc34)n2)cc1NC(C)=O` [Compound 336, N-(2-((2-(dimethylamino)ethyl)(ethyl)amino)-5-((4-(7-fluoro-1H-indol-3-yl)-5-(trifluoromethyl)pyrimidin-2-yl)amino)phenyl)acetamide] belongs 64.8 nM; to `CN(C)CCN(C)c1cc(F)c(Nc2ncc(C(F)(F)F)c(-c3c[nH]c4c(F)cccc34)n2)cc1N` [Compound 339, N^1-(2-(dimethylamino)ethyl)-5-fluoro-N^4-(4-(7-fluoro-1H-indol-3-yl)-5-(trifluoromethyl)pyrimidin-2-yl)-N^1-methylbenzene-1,2,4-triamine], 75.2 nM; to `CC(=O)Nc1cc(Nc2ncc(C(F)(F)F)c(-c3c[nH]c4c(F)cccc34)n2)c(F)cc1N(C)CCN(C)C` [Compound 340, N-(2-((2-(dimethylamino)ethyl)(methyl)amino)-4-fluoro-5-((4-(7-fluoro-1H-indol-3-yl)-5-(trifluoromethyl)pyrimidin-2-yl)amino)phenyl)acetamide], 57.4 nM.
With `CC(=O)Nc1cc(Nc2ncc(C(F)(F)F)c(-c3c[nH]c4c(F)cccc34)n2)ccc1N(CCN(C)C)C(C)=O` [Compound 341, N-(2-acetamido-4-((4-(7-fluoro-1H-indol-3-yl)-5-(trifluoromethyl)pyrimidin-2-yl)amino)phenyl)-N-(2-(dimethylamino)ethyl)acetamide], the IC50 was determined as 248 nM.
The value for `Cc1nc2cc(Nc3ncc(C(F)(F)F)c(-c4c[nH]c5c(F)cccc45)n3)ccc2n1CCN(C)C` [Compound 342, 1-(2-(dimethylamino)ethyl)-N-(4-(7-fluoro-1H-indol-3-yl)-5-(trifluoromethyl)pyrimidin-2-yl)-2-methyl-1H-benzo[d]imidazol-5-amine] was 24.6 nM; that for `CC(=O)Nc1cc(Nc2ncc(C(F)(F)F)c(-c3cn(C)c4c(F)cccc34)n2)ccc1N(C)CCN(C)C` [Compound 346, N-(2-((2-(dimethylamino)ethyl)(methyl)amino)-5-((4-(7-fluoro-1-methyl-1H-indol-3-yl)-5-(trifluoromethyl)pyrimidin-2-yl)amino)phenyl)acetamide] was 105 nM.
To `CN(C)CCN(C)c1ccc(Nc2ncc(C(F)(F)F)c(-c3cn(C)c4c(F)cccc34)n2)cc1N` [Compound 347, N^1-(2-(dimethylamino)ethyl)-N^4-(4-(7-fluoro-1-methyl-1H-indol-3-yl)-5-(trifluoromethyl)pyrimidin-2-yl)-N^1-methylbenzene-1,2,4-triamine] belongs 114 nM; to `CCN(CCN(C)C)c1ccc(Nc2ncc(C(F)(F)F)c(-c3cn(C)c4c(F)cccc34)n2)cc1NC(C)=O` [Compound 348, N-(2-((2-(dimethylamino)ethyl)(ethyl)amino)-5-((4-(7-fluoro-1-methyl-1H-indol-3-yl)-5-(trifluoromethyl)pyrimidin-2-yl)amino)phenyl)acetamide], 87.8 nM.
The value for `CCN(CCN(C)C)c1ccc(Nc2ncc(C(F)(F)F)c(-c3cn(C)c4c(F)cccc34)n2)cc1N` [Compound 349, N^1-(2-(dimethylamino)ethyl)-N^1-ethyl-N^4-(4-(7-fluoro-1-methyl-1H-indol-3-yl)-5-(trifluoromethyl)pyrimidin-2-yl)benzene-1,2,4-triamine] was 245 nM.
Consider `CC(=O)Nc1cc(Nc2ncc(C(F)(F)F)c(-c3cn(C)c4c(F)cccc34)n2)ccc1N(CCN(C)C)C(C)=O` [Compound 350, N-(2-acetamido-4-((4-(7-fluoro-1-methyl-1H-indol-3-yl)-5-(trifluoromethyl)pyrimidin-2-yl)amino)phenyl)-N-(2-(dimethylamino)ethyl)acetamide], for which the half-inhibitory concentration (IC50) was 126 nM.
The value for `Cc1nc2cc(Nc3ncc(C(F)(F)F)c(-c4cn(C)c5c(F)cccc45)n3)ccc2n1CCN(C)C` [Compound 351, 1-(2-(dimethylamino)ethyl)-N-(4-(7-fluoro-1-methyl-1H-indol-3-yl)-5-(trifluoromethyl)pyrimidin-2-yl)-2-methyl-1H-benzo[d]imidazol-5-amine] was 172 nM.
The value for `CC(=O)Nc1cc(Nc2ncc(C(F)(F)F)c(-c3cn(C)c4c(F)cccc34)n2)ccc1OCCN(C)C` [Compound 352, N-(2-(2-(dimethylamino)ethoxy)-5-((4-(7-fluoro-1-methy-1H-indol-3-yl)-5-(trifluoromethyl)pyrimidin-2-yl)amino)phenyl)acetamide] was 42.1 nM; that for `CC(=O)Nc1cc(Nc2ncc(C(F)(F)F)c(-c3cn(C)c4cc(F)c(F)cc34)n2)ccc1N(C)CCN(C)C` [Compound 355, N-(5-((4-(5,6-difluoro-1-methyl-1H-indol-3-yl)-5-(trifluoromethyl)pyrimidin-2-yl)amino)-2-((2-(dimethylamino)ethyl)(methyl)amino)phenyl)acetamide] was 70.4 nM; that for `CC(=O)Nc1cc(Nc2ncc(C(F)(F)F)c(-c3cn(C)c4ccc(C)cc34)n2)ccc1N(C)CCN(C)C` [Compound 356, N-(5-((4-(1,5-dimethyl-1H-indol-3-yl)-5-(trifluoromethyl)pyrimidin-2-yl)amino)-2-((2-(dimethylamino)ethyl)(methyl)amino)phenyl)acetamide] was 327 nM.
For the molecule `COc1ccc2c(c1)c(-c1nc(Nc3ccc(N(C)CCN(C)C)c(NC(C)=O)c3)ncc1C(F)(F)F)cn2C` [Compound 357, N-(2-((2-(dimethylamino)ethyl)(methyl)amino)-5-((4-(5-methoxy-1-methyl-1H-indol-3-yl) 5-(trifluoromethyl)pyrimidin-2-yl)amino)phenyl)acetamide], the 50% inhibitory concentration (IC50) worked out at 1080 nM.
To `CC(=O)Nc1cc(Nc2ncc(C(F)(F)F)c(-c3c[nH]c4c(C)cccc34)n2)ccc1N(CCN(C)C)C(C)=O` [Compound 363, N-(2-acetamido-4-((4-(7-methyl-1H-indol-3-yl)-5-(trifluoromethyl)pyrimidin-2-yl)amino)phenyl)-N-(2-(dimethylamino)ethyl)acetamide] belongs 93.4 nM; to `Cc1cccc2c(-c3nc(Nc4ccc5c(c4)nc(C)n5CCN(C)C)ncc3C(F)(F)F)c[nH]c12` [Compound 364, 1-(2-(dimethylamino)ethyl)-2-methyl-N-(4-(7-methyl-1H-indol-3-yl)-5-(trifluoromethyl)pyrimidin-2-yl)-1H-benzo[d]imidazol-5-amine], 20.1 nM.
